# Measurements from patent US20230255935A1, “ANTI-VIRAL COMPOUNDS AND METHODS FOR SCREENING SAME AND TREATING VIRAL INFECTIONS” (priority 2020, published 2023).
# pEC50: −log10 of the molar value. Read-outs that look alike come from different tables or passages of the source.
# Key:
# in vitro = settings: African green monkey
# MERS-CoV [1] = test: microbe, parasite or virus in culture; settings: Middle East respiratory syndrome-related coronavirus, Vero C1008, 48 h
# MERS-CoV [2] = type: cell-based
# [3] = biological target: T1, full-length MERS-CoV N protein (Middle East respiratory syndrome-related coronavirus, UniProt K9N4V7)
# MERS-CoV [4] = type: cell-based; remark: listed apart in the source
# MERS-CoV N-NTD [5] = biological target: T2, MERS-CoV N-NTD (Middle East respiratory syndrome-related coronavirus, UniProt K9N4V7)
# [6] = biological target: T1, full-length MERS-CoV N protein; remark: listed apart in the source
# MHV [7] = test: MHV-infected mice treated with PSX-01 (clinical score, body weight, liver histology); settings: PSX-01 10 mM intraperitoneal
# SARS-CoV2 [8] = type: cell-based
# PEDV = type: cell-based, porcine epidemic diarrhea virus (PEDV)
# MERS-CoV N protein = type: cell-based
# MHV [9] = type: cell-based, mouse hepatitis virus (MHV)
# MERS-CoV N-NTD [10] = biological target: T2, MERS-CoV N-NTD; remark: listed apart in the source
# MERS-CoV [11] = system: MERS-CoV
# MERS-CoV [12] = type: cell-based; remark: listed apart in the source
# SARS-CoV2 [13] = system: SARS-CoV2
# [14] = biological target: T1, full-length MERS-CoV N protein; remark: listed apart in the source
structure (smiles),measurement,setting,value
"O=C(OCc1ccccc1)N1c2ccccc2CC1CO (centres unmarked) [Compound P1, benzyl 2-(hydroxymethyl)-1-indolinecarboxylate]",CC50,in vitro,460 µM
same,pEC50,MERS-CoV [1],< 4.00
"CCc1cccc2c3c([nH]c12)C(CC)(CC(=O)O)OCC3 (centres unmarked) [Compound P2, etodolac]",CC50,in vitro,570 µM
same,pEC50,MERS-CoV [1],< 4.00
"CN(C)Cc1c[nH]c2ccc(OCc3ccccc3)cc12 [PSX-01, 5-benzyloxygramine]",cytopathic effect,MERS-CoV [2],significantly reduce the cytopathic effect
same,shift in the fluorescence spectrum of full-length N protein,[3],“blue shift” was observed
same,suppression of viral RNA replication,MERS-CoV [4],40%
same,viral RNA replication,MERS-CoV [4],halted
same,binding to the N protein relative to the other leads,MERS-CoV N-NTD [5],bound more tightly to the N protein than P1 or P2
same,shift in the intrinsic N-NTD fluorescence spectrum,MERS-CoV N-NTD [5],comparatively larger blue shift
same,N protein thermal denaturation,[6],delayed N protein thermal denaturation
same,appearance (clinical score),"MHV [7]; 4 h before MHV 10^4 pfu, mice",prevent the appearance change caused by MHV
same,liver histology (H&E stain),"MHV [7]; MHV infection, day 7",rescue the increases of adipocytes and inflammation
same,viral titer (plaque assay),SARS-CoV2 [8],affected the viral titer
same,cytopathic effect,PEDV,significantly reduce the cytopathic effect
same,N protein expression,MERS-CoV N protein,suppressed N protein expression in most cells
same,intracellular N protein distribution,MERS-CoV N protein,condensation of the intracellular N protein fluorescence signal
same,cytopathic effect,MHV [9],significantly reduce the cytopathic effect
same,N-NTD denaturation melting temperature,MERS-CoV N-NTD [10],45 °C
same,pEC50,MERS-CoV [11],4.49
same,TI (CC50/EC50),MERS-CoV [11],25.1
same,extracellular viral titer (plaque assay),MERS-CoV [12],affected the viral titer
same,viral production (plaque assay),MERS-CoV [12],halted
same,pEC50,SARS-CoV2 [13],4.46
same,TI (CC50/EC50),SARS-CoV2 [13],23
same,maximum dimension (Dmax) of N protein,[14],230
